The record followed here is ChEMBL document CHEMBL1126630, “Adenosine-5'-carboxaldehyde: a potent inhibitor of S-adenosyl-L-homocysteine hydrolase” (J Med Chem, 1993).

One may read the Ki as a dissociation constant, usually derived from enzyme kinetics or from competition with a known ligand.

Experiment [1] has as its target T1, Adenosylhomocysteinase (Rattus norvegicus) (UniProt P10760).
T1 sequence (whole entry): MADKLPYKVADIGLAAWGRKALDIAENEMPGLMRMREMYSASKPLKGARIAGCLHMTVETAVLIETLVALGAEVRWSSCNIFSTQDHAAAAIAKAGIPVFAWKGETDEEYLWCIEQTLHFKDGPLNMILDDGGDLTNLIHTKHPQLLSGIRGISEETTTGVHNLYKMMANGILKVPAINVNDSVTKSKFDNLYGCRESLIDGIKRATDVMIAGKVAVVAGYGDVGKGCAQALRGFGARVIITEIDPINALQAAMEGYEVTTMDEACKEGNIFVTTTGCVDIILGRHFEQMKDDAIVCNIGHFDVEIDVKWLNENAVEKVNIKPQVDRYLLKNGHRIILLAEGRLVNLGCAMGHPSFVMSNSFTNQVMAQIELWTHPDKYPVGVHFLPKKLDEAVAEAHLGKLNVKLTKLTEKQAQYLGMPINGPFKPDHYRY
Description: Rate constant for recombinant rat liver S-adenosyl-homocysteine hydrolase inactivation

A further experiment has as its target T2, Adenosylhomocysteinase (Rattus norvegicus, UniProt P10760).
T2 sequence (P10760 whole entry): T1 sequence (whole entry)
Description: Inhibitory activity against recombinant rat liver S-adenosyl-homocysteine hydrolase.

As to `Nc1ncnc2c1ncn2[C@@H]1O/C(=C/F)[C@H](O)[C@@H]1O`, in experiment [1], the k2 amounted to 0.05 min⁻¹. Besides, the Ki on Adenosylhomocysteinase is 40 nM.
In the case of `Nc1ncnc2c1ncn2[C@@H]1O[C@H](C=O)[C@@H](O)[C@H]1O`, in experiment [1], the k2 was determined as 0.22 min⁻¹. In addition, the Ki on Adenosylhomocysteinase is 43 nM.
For `Nc1ncnc2c1ncn2[C@@H]1O/C(=C\F)[C@H](O)[C@@H]1O`, in that order: 0.082 min⁻¹ and 39 nM.
For `Nc1ncnc2c1ncn2[C@@H]1O[C@@H](C=O)[C@@H](O)[C@H]1O`, in experiment [1], the k2 came to 0.65 min⁻¹. At Adenosylhomocysteinase, the Ki worked out at 39 nM.
